Eight molecules from patent US20240279278A1, “NMU RECEPTOR 2 AGONISTS” (Boehringer Ingelheim International GmbH, priority 2023, published 2024) can be followed below.

The target of experiment [1] is T1, human NMUR2 receptor (Homo sapiens, UniProt Q9GZQ4). Put plainly: IP1 Gq HTRF assay, activation of human NMUR2 in buffer. It counts as cell-based. Further details: expressed in transfected cells; host or cells: CHO-K1. Particulars: CHO-K1 cells expressing human NMUR2, stimulation buffer with 0.1% BSA; read-out: EC50 (hNMUR2) buffer. The source says:
Example 3: IP1 Gq HTRF Assay Activation of Human NMUR2 or Human NMUR1 in Buffer Application of the Homogenous Time Resolved Fluorescence (HTRF) technology optimized for Gq coupled receptors has been described in detail in the Cisbio IP-One Gq kit manual. In brief, a FRET signal (FRET: fluorescence resonance energy transfer) is generated between the donor label of an IP-One antibody (anti-IP1-Tb) and the acceptor label of a tagged IP-One (IP1-d2). Agonism of a Gq coupled receptor increases intracellular IP-One, which competes with labeled IP-One and leads to a reduction of the FRET signal. Frozen stocks of CHO-K1 cells stably expressing the human NMUR1 or NMUR2 receptor were thawed and 5000 cells were seeded in culture medium (HAM'S F12, 10% FCS) into each well of a 384-well assay plate. After seeding, cells were incubated for 24 h in a humidified incubator at 37° C. and 5% CO2. Next, cells were washed once with 50 μL of wash buffer (20 mM Hepes, 1×HBSS, pH 7.4), followed by addition of either 10 μL of stimulation buffer (20 mM Hepes, 1×HBSS, 50 mM LiCl, 0.1% BSA, pH 7.4). Peptide agonists to be tested were dissolved in 100% DMSO and pre-diluted in stimulation buffer at a suitable concentration range for an 8 pt dose-response curve. 5 μL of peptide pre-dilution were then added to each well, followed by another 5 μL of stimulation buffer to give a final concentration of 1% DMSO. Samples were subsequently incubated for 1 hour in a humidified incubator at 37° C. After addition of 5 μL each of IP1-d2 and anti-IP1-Tb, samples were incubated for another 1 hour at room temperature and FRET signals (ratio 665 nm/620 nm) were measured. EC50 values were calculated by nonlinear regression using a 4-parameter sigmoidal curve fit.
On the technique in general: Time-resolved FRET reads energy transfer from a long-lived donor to a nearby acceptor.

In experiment [2] the target is T1, human NMUR2 receptor. Put plainly: IP1 Gq HTRF assay, activation of human NMUR2 in human plasma. It counts as cell-based. Further details: expressed in transfected cells; host or cells: CHO-K1. Conditions: CHO-K1 cells expressing human NMUR2, 100% human plasma; read-out: EC50 (hNMUR2) human plasma. The text has this: Example 4: IP1 Gq HTRF Assay Activation of Human NMUR2 in Human Plasma Application of the Homogenous Time Resolved Fluorescence (HTRF) technology optimized for Gq coupled receptors has been described in detail in the Cisbio IP-One Gq kit manual. In brief, a FRET signal is generated between the donor label of an IP-One antibody (anti-IP1-Tb) and the acceptor label of a tagged IP-One (IP1-d2). Agonism of a Gq coupled receptor increases intracellular IP-One, which competes with labeled IP-One and leads to a reduction of the FRET signal. Frozen stocks of CHO-K1 cells stably expressing the human NMUR1 receptor or human NMUR2 receptor were thawed and 5000 cells were seeded in culture medium (HAM'S F12, 10% FCS) into each well of a 384-well assay plate. After seeding, cells were incubated for 24 h in a humidified incubator at 37° C. and 5% CO2. Next, cells were washed once with […] of wash buffer (20 mM Hepes, 1×HBSS, pH 7.4), followed by addition of […] (100% human plasma, 50 mM LiCl). Peptide agonists to be tested were dissolved in 100% DMSO and pre-diluted in plasma at a suitable concentration range for an 8 pt dose-response curve. 5 μL of peptide pre-dilution were then added to each well, followed by another 5 μL of plasma to give a final concentration of 1% DMSO. Samples were subsequently incubated for 1 hour in a humidified incubator at 37° C. The plasma solution was replaced by 20 μL of stimulation buffer. After addition of 5 μL each of IP1-d2 and anti-IP1-Tb, samples were incubated for another 1 hour at room temperature and FRET signals (ratio 665 nm/620 nm) were measured. EC50 values were calculated by nonlinear regression using a 4-parameter sigmoidal curve fit.

Residues, ends and D or L forms follow the SMILES beside them.

T1 sequence (Q9GZQ4 whole entry): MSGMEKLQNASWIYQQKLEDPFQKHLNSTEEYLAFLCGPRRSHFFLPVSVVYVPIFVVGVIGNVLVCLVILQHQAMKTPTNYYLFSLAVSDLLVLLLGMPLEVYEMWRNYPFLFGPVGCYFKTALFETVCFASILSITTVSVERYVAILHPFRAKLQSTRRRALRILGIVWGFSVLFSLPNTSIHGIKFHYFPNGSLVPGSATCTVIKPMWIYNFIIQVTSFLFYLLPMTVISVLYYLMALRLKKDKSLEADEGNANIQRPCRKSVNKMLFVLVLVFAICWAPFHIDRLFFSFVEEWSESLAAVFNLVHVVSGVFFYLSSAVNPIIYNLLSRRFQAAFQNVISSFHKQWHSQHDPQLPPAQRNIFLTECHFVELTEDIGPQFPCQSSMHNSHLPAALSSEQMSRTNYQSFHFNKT

Turning to `CCCC[C@H](NC(=O)[C@H](CC(C)C)N(C)C(=O)[C@H](Cc1ccccc1)NC(=O)[C@H](Cc1ccc(O)cc1)NC(=O)CN1CCN(CCNC(=O)CN(C)C(=O)CN(C)C(=O)CN(C)C(=O)CN(C)C(=O)CN(C)C(=O)CN(C)C(=O)CN(C)C(=O)CN(C)C(=O)CN(C)C(=O)CN(C)C(=O)CN(C)C(=O)CN(C)C(=O)CC[C@H](NC(=O)CC[C@H](NC(=O)CC[C@H](NC(=O)CC[C@H](NC(=O)CCCCCCCCCCCCCCCCC(=O)O)C(=O)O)C(=O)O)C(=O)O)C(=O)O)CC1)C(=O)N[C@@H](CCCN)C(=O)N1CCC[C@H]1C(=O)N[C@@H](CCCNC(=N)N)C(=O)NCC(N)=O` [Compound 5, C18DA-gGlu4-Sar12-AEPipAc-Tyr-Phe-NMeLeu-Nle-Orn-Pro-Arg-Gly-NH2], the EC50 – broadly, the midpoint of the concentration-response curve – at human NMUR2 receptor [1] turned out to be 1.8 nM; on human NMUR2 receptor [2], 10 nM.

Consider `CCCC[C@H](NC(=O)[C@H](CC(C)C)N(C)C(=O)[C@H](Cc1ccccc1)NC(=O)[C@H](Cc1ccc(O)cc1)NC(=O)CN1CCN(CCNC(=O)CN(C)C(=O)CN(C)C(=O)CN(C)C(=O)CN(C)C(=O)CN(C)C(=O)CN(C)C(=O)CN(C)C(=O)CN(C)C(=O)CN(C)C(=O)CN(C)C(=O)CN(C)C(=O)CN(C)C(=O)CC[C@H](NC(=O)CC[C@H](NC(=O)CC[C@H](NC(=O)CC[C@H](NC(=O)CCCCCCCCCCCCCCCCCCC(=O)O)C(=O)O)C(=O)O)C(=O)O)C(=O)O)CC1)C(=O)N[C@@H](CCN)C(=O)N1CCC[C@H]1C(=O)N[C@@H](CCCNC(=N)N)C(=O)NCC(N)=O` [Compound 15, C20DA-gGlu4-Sar12-AEPipAc-Tyr-Phe-NMeLeu-Nle-Dbu-Pro-Arg-Gly-NH2], for which the figures for the EC50 at human NMUR2 receptor [1] and on human NMUR2 receptor [2] were 3.2 nM and 10.8 nM, respectively.

With `CCCC[C@H](NC(=O)[C@H](CC(C)C)N(C)C(=O)[C@H](Cc1ccccc1)NC(=O)[C@H](Cc1ccc(O)cc1)NC(=O)CN1CCN(CCNC(=O)CN(C)C(=O)CN(C)C(=O)CN(C)C(=O)CN(C)C(=O)CN(C)C(=O)CN(C)C(=O)CN(C)C(=O)CN(C)C(=O)CN(C)C(=O)CN(C)C(=O)CN(C)C(=O)CN(C)C(=O)CN(C)C(=O)CN(C)C(=O)CN(C)C(=O)CC[C@H](NC(=O)CC[C@H](NC(=O)CC[C@H](NC(=O)CC[C@H](NC(=O)CCCCCCCCCCCCCCCCCCC(=O)O)C(=O)O)C(=O)O)C(=O)O)C(=O)O)CC1)C(=O)N[C@@H](CCCCN)C(=O)N1CCC[C@H]1C(=O)N[C@@H](CCCNC(=N)N)C(=O)NCC(N)=O` [Compound 17, C20DA-gGlu4-Sar15-AEPipAc-Tyr-Phe-NMeLeu-Nle-Lys-Pro-Arg-Gly-NH2] (HELM PEPTIDE1{[O=C(O)CCCCCCCCCCCCCCCCCCC(=O)[*:2]].[gGlu].[gGlu].[gGlu].[gGlu].[Sar].[Sar].[Sar].[Sar].[Sar].[Sar].[Sar].[Sar].[Sar].[Sar].[Sar].[Sar].[Sar].[Sar].[Sar].[O=C(CN1CCN(CCN[*:1])CC1)[*:2]].Y.F.[meL].[Nle].K.P.R.G.[am]}$$$$V2.0), the concentration giving a half-maximal response (EC50) amounted to 4.7 nM at human NMUR2 receptor [1] and 24.8 nM at human NMUR2 receptor [2].

In the case of `CCCC[C@H](NC(=O)[C@H](CC(C)C)N(C)C(=O)[C@H](Cc1ccccc1)NC(=O)[C@H](Cc1ccc(O)cc1)NC(=O)CN1CCN(CCNC(=O)CN(C)C(=O)CN(C)C(=O)CN(C)C(=O)CN(C)C(=O)CN(C)C(=O)CN(C)C(=O)CN(C)C(=O)CN(C)C(=O)CN(C)C(=O)CN(C)C(=O)CN(C)C(=O)CN(C)C(=O)CC[C@H](NC(=O)CC[C@H](NC(=O)CC[C@H](NC(=O)CC[C@H](NC(=O)CCCCCCCCCCCCCCCCCCC(=O)O)C(=O)O)C(=O)O)C(=O)O)C(=O)O)CC1)C(=O)N[C@@H](CCCN)C(=O)N1CCC[C@H]1C(=O)N[C@@H](CCCNC(=N)N)C(=O)NCC(N)=O` [Compound 40, C20DA-gGlu4-Sar12-AEPipAc-Tyr-Phe-NMeLeu-Nle-Orn-Pro-Arg-Gly-NH2], the EC50 came to 4.5 nM on human NMUR2 receptor [1] and 11.3 nM at human NMUR2 receptor [2].

For the molecule `CCCC[C@H](NC(=O)[C@H](CC(C)C)N(C)C(=O)[C@H](Cc1ccccc1)NC(=O)[C@H](Cc1ccc(O)cc1)NC(=O)CN1CCN(CCNC(=O)CN(C)C(=O)CN(C)C(=O)CN(C)C(=O)CN(C)C(=O)CN(C)C(=O)CN(C)C(=O)CN(C)C(=O)CN(C)C(=O)CN(C)C(=O)CN(C)C(=O)CN(C)C(=O)CN(C)C(=O)CC[C@H](NC(=O)CC[C@H](NC(=O)CC[C@H](NC(=O)CCCCCCCCCCCCCCCCCCC(=O)O)C(=O)O)C(=O)O)C(=O)O)CC1)C(=O)N[C@@H](CCCNC(=N)N)C(=O)N(C)[C@@H](C)C(=O)N[C@@H](CCCNC(=N)N)C(=O)NCC(N)=O` [Compound 63, C20DA-gGlu3-Sar12-AEPipAc-Tyr-Phe-NMeLeu-Nle-Arg-NMeAla-Arg-Gly-NH2], the EC50 at human NMUR2 receptor [1] was found to be 4.5 nM; at human NMUR2 receptor [2], 14.9 nM.

On to `CCCC[C@H](NC(=O)[C@H](CC(C)C)N(C)C(=O)[C@H](Cc1ccccc1)NC(=O)[C@H](Cc1ccc(O)cc1)NC(=O)CN1CCN(CCNC(=O)CN(C)C(=O)CN(C)C(=O)CN(C)C(=O)CN(C)C(=O)CN(C)C(=O)CN(C)C(=O)CN(C)C(=O)CN(C)C(=O)CN(C)C(=O)CC[C@H](NC(=O)CC[C@H](NC(=O)CCCCCCCCCCCCCCCCC(=O)O)C(=O)O)C(=O)O)CC1)C(=O)N[C@@H](CCCNC(=N)N)C(=O)N(C)[C@@H](C)C(=O)N[C@@H](CCCNC(=N)N)C(=O)NCC(N)=O` [Compound 66, C18DA-gGlu2-Sar9-AEPipAc-Tyr-Phe-NMeLeu-Nle-Arg-NMeAla-Arg-Gly-NH2] (HELM PEPTIDE1{[O=C(O)CCCCCCCCCCCCCCCCC(=O)[*:2]].[gGlu].[gGlu].[Sar].[Sar].[Sar].[Sar].[Sar].[Sar].[Sar].[Sar].[Sar].[O=C(CN1CCN(CCN[*:1])CC1)[*:2]].Y.F.[meL].[Nle].R.[meA].R.G.[am]}$$$$V2.0), for which the results for the EC50 on human NMUR2 receptor [1] and on human NMUR2 receptor [2] were 1.6 nM and 18.9 nM, respectively.

On to `CCCC[C@H](NC(=O)[C@H](CC(C)C)N(C)C(=O)[C@H](Cc1ccccc1)NC(=O)[C@H](Cc1ccc(O)cc1)NC(=O)CN1CCN(CCNC(=O)CN(C)C(=O)CN(C)C(=O)CN(C)C(=O)CN(C)C(=O)CN(C)C(=O)CN(C)C(=O)CN(C)C(=O)CN(C)C(=O)CN(C)C(=O)CC[C@H](NC(=O)CC[C@H](NC(=O)CCCCCCCCCCCCCCCCC(=O)O)C(=O)O)C(=O)O)CC1)C(=O)N[C@@H](CCCNC(=N)N)C(=O)N1CCC[C@H]1C(=O)N[C@@H](CCCNC(=N)N)C(=O)NCC(N)=O` [Compound 67, C18DA-gGlu2-Sar9-AEPipAc-Tyr-Phe-NMeLeu-Nle-Arg-Pro-Arg-Gly-NH2] (HELM PEPTIDE1{[O=C(O)CCCCCCCCCCCCCCCCC(=O)[*:2]].[gGlu].[gGlu].[Sar].[Sar].[Sar].[Sar].[Sar].[Sar].[Sar].[Sar].[Sar].[O=C(CN1CCN(CCN[*:1])CC1)[*:2]].Y.F.[meL].[Nle].R.P.R.G.[am]}$$$$V2.0), for which the half-maximal effective concentration (EC50) at human NMUR2 receptor [1] came out at 0.9 nM; on human NMUR2 receptor [2], 9.9 nM.

For `CCCC[C@H](NC(=O)[C@H](CC(C)C)N(C)C(=O)[C@H](Cc1ccccc1)NC(=O)[C@H](Cc1ccc(O)cc1)NC(=O)CN1CCN(C(=O)CN(C)C(=O)CN(C)C(=O)CN(C)C(=O)CN(C)C(=O)CN(C)C(=O)CN(C)C(=O)CN(C)C(=O)CN(C)C(=O)CN(C)C(=O)CN(C)C(=O)CN(C)C(=O)CN(C)C(=O)CC[C@H](NC(=O)CC[C@H](NC(=O)CC[C@H](NC(=O)CCCCCCCCCCCCCCCCC(=O)O)C(=O)O)C(=O)O)C(=O)O)CC1)C(=O)N[C@@H](CCCNC(=N)N)C(=O)N1CCC[C@H]1C(=O)N[C@@H](CCCNC(=N)N)C(=O)NCC(N)=O` [Compound 77, C18DA-gGlu3-Sar12-PipAc-Tyr-Phe-NMeLeu-Nle-Arg-Pro-Arg-Gly-NH2], the EC50 is 0.8 nM at human NMUR2 receptor [1] and 5.2 nM at human NMUR2 receptor [2].
